Laboratory results from patent US20230048576A1, “COMPOUNDS FOR THE TREATMENT OF NEUROPATHIC PAIN” (City of Hope, priority 2019, published 2023).

How the values were obtained:
[1] = Pharmacokinetic study following a single oral administration; format: in vivo, Sprague-Dawley (SD) rats; conditions: in 20% HPβCD in pH 8.0 buffer; 50 mg/kg oral gavage; vs salt in water, 4% DMSO in corn oil, Ora-Blend SF
Procedure: Pharmacokinetic studies of four different formulations of LR-90 were investigated. LR-90 either in salt formulation dissolved in water, in 4% DMSO in corn oil, in 20% HPβCD in pH 8.0 buffer, and in Ora-Blend SF was delivered at a dose of 50 mg/kg by oral gavage in Sprague-Dawley (SD) rats. Blood samples were collected at 0 min, 15 min, 30 min, 1 hr, 2 hr, 4 hr, 8 hr, 24 hr and 48 hr post-dosing. LR-90 level was determined in plasma by LC-MS/MS assay.

[2] = Mean group body weight in Taxol model; format: in vivo, rat
Procedure: Neuropathic pain was induced by intraperitoneal administration of Taxol at a dose level of 6 mg/kg on study days 0-6 and 12 mg/kg on study days 7-12. Following injection of Taxol animals experienced pain as was assessed using the von Frey test. The development of neuropathic pain was confirmed by measuring mechanical allodynia (Von Frey test) on study day 13 (for inclusion) and on study day 14 (1 hour and 2 hour post dosing) and 24 hour post first dosing.

[3] = 100 mg/kg PO, Group 4, Baseline

SMILES: CC(C)(Oc1ccc(NC(=O)Nc2ccc(Cc3ccc(NC(=O)Nc4ccc(OC(C)(C)C(=O)O)cc4)c(Cl)c3)cc2Cl)cc1)C(=O)O [LR-90, methylene bis[4,4′-(2-chlorophenylureidophenoxyisobutyric acid)]]
- pharmacokinetics (plasma LR-90 level) compared with the three other formulations [1]: superior
- Mean group body weight ([2]; 25 mg/kg PO, Group 6, Baseline): 223.50 g
- Mean group body weight (% from baseline) ([2]; 25 mg/kg PO, Group 6, Baseline): 100.00%
- Mean group body weight ([2]; 25 mg/kg PO, Group 6, Day 1): 235.00 g
- Mean group body weight (% from baseline) ([2]; 25 mg/kg PO, Group 6, Day 1): 105.16%
- Mean group body weight ([2]; 25 mg/kg PO, Group 6, Day 3): 237.50 g
- Mean group body weight (% from baseline) ([2]; 25 mg/kg PO, Group 6, Day 3): 106.26%
- Mean group body weight ([2]; 25 mg/kg PO, Group 6, Day 5): 255.50 g
- Mean group body weight (% from baseline) ([2]; 25 mg/kg PO, Group 6, Day 5): 114.32%
- Mean group body weight ([2]; 25 mg/kg PO, Group 6, Day 7): 264.30 g
- Mean group body weight (% from baseline) ([2]; 25 mg/kg PO, Group 6, Day 7): 118.31%
- Mean group body weight ([2]; 25 mg/kg PO, Group 6, Day 9): 275.88 g
- Mean group body weight (% from baseline) ([2]; 25 mg/kg PO, Group 6, Day 9): 123.38%
- Mean group body weight ([2]; 25 mg/kg PO, Group 6, Day 11): 282.38 g
- Mean group body weight (% from baseline) ([2]; 25 mg/kg PO, Group 6, Day 11): 126.30%
- Mean group body weight ([2]; 25 mg/kg PO, Group 6, Day 13): 286.75 g
- Mean group body weight (% from baseline) ([2]; 25 mg/kg PO, Group 6, Day 13): 128.26%
- Mean group body weight ([2]; 25 mg/kg PO, Group 6, Day 16): 277.50 g
- Mean group body weight (% from baseline) ([2]; 25 mg/kg PO, Group 6, Day 16): 124.11%
- Mean group body weight ([2]; 25 mg/kg PO, Group 6, Day 20): 277.63 g
- Mean group body weight (% from baseline) ([2]; 25 mg/kg PO, Group 6, Day 20): 124.18%
- Mean group body weight ([2]; 25 mg/kg PO, Group 6, Day 23): 263.63 g
- Mean group body weight (% from baseline) ([2]; 25 mg/kg PO, Group 6, Day 23): 117.84%
- Mean group body weight ([2]; 25 mg/kg PO, Group 6, Day 26): 239.00 g
- Mean group body weight (% from baseline) ([2]; 25 mg/kg PO, Group 6, Day 26): 108.59%
- Mean group body weight ([2]; 50 mg/kg PO, Group 5, Baseline): 225.88 g
- Mean group body weight (% from baseline) ([2]; 50 mg/kg PO, Group 5, Baseline): 100.00%
- Mean group body weight ([2]; 50 mg/kg PO, Group 5, Day 1): 234.38 g
- Mean group body weight (% from baseline) ([2]; 50 mg/kg PO, Group 5, Day 1): 103.80%
- Mean group body weight ([2]; 50 mg/kg PO, Group 5, Day 3): 241.63 g
- Mean group body weight (% from baseline) ([2]; 50 mg/kg PO, Group 5, Day 3): 106.95%
- Mean group body weight ([2]; 50 mg/kg PO, Group 5, Day 5): 257.50 g
- Mean group body weight (% from baseline) ([2]; 50 mg/kg PO, Group 5, Day 5): 113.97%
- Mean group body weight ([2]; 50 mg/kg PO, Group 5, Day 7): 268.63 g
- Mean group body weight (% from baseline) ([2]; 50 mg/kg PO, Group 5, Day 7): 118.88%
- Mean group body weight ([2]; 50 mg/kg PO, Group 5, Day 9): 278.38 g
- Mean group body weight (% from baseline) ([2]; 50 mg/kg PO, Group 5, Day 9): 123.18%
- Mean group body weight ([2]; 50 mg/kg PO, Group 5, Day 11): 286.13 g
- Mean group body weight (% from baseline) ([2]; 50 mg/kg PO, Group 5, Day 11): 126.60%
- Mean group body weight ([2]; 50 mg/kg PO, Group 5, Day 13): 291.38 g
- Mean group body weight (% from baseline) ([2]; 50 mg/kg PO, Group 5, Day 13): 128.91%
- Mean group body weight ([2]; 50 mg/kg PO, Group 5, Day 16): 280.13 g
- Mean group body weight (% from baseline) ([2]; 50 mg/kg PO, Group 5, Day 16): 123.98%
- Mean group body weight ([2]; 50 mg/kg PO, Group 5, Day 20): 273.75 g
- Mean group body weight (% from baseline) ([2]; 50 mg/kg PO, Group 5, Day 20): 121.18%
- Mean group body weight ([2]; 50 mg/kg PO, Group 5, Day 23): 264.29 g
- Mean group body weight (% from baseline) ([2]; 50 mg/kg PO, Group 5, Day 23): 116.09%
- Mean group body weight ([2]; 50 mg/kg PO, Group 5, Day 26): 266.67 g
- Mean group body weight (% from baseline) ([2]; 50 mg/kg PO, Group 5, Day 26): 117.29%
- Mean group body weight [2, 3]: 222.63 g
- Mean group body weight (% from baseline) [2, 3]: 100.00%
- Mean group body weight ([2]; 100 mg/kg PO, Group 4, Day 1): 235.50 g
- Mean group body weight (% from baseline) ([2]; 100 mg/kg PO, Group 4, Day 1): 105.77%
- Mean group body weight ([2]; 100 mg/kg PO, Group 4, Day 3): 237.63 g
- Mean group body weight (% from baseline) ([2]; 100 mg/kg PO, Group 4, Day 3): 106.74%
- Mean group body weight ([2]; 100 mg/kg PO, Group 4, Day 5): 257.25 g
- Mean group body weight (% from baseline) ([2]; 100 mg/kg PO, Group 4, Day 5): 115.56%
- Mean group body weight ([2]; 100 mg/kg PO, Group 4, Day 7): 267.25 g
- Mean group body weight (% from baseline) ([2]; 100 mg/kg PO, Group 4, Day 7): 120.04%
- Mean group body weight ([2]; 100 mg/kg PO, Group 4, Day 9): 276.50 g
- Mean group body weight (% from baseline) ([2]; 100 mg/kg PO, Group 4, Day 9): 124.20%
- Mean group body weight ([2]; 100 mg/kg PO, Group 4, Day 11): 285.00 g
- Mean group body weight (% from baseline) ([2]; 100 mg/kg PO, Group 4, Day 11): 128.01%
- Mean group body weight ([2]; 100 mg/kg PO, Group 4, Day 13): 288.75 g
- Mean group body weight (% from baseline) ([2]; 100 mg/kg PO, Group 4, Day 13): 129.71%
